Common to all, as to experiment: NCI-60 cell line screen, 48 h
Assay [1] has as its system HS 578T breast.
The subject of assay [2] is EKVX NSCLC.
For assay [3], the system named is UACC-257 melanoma.
Assay [4] concerns CAKI-1 renal.
For assay [5], the system named is DU-145 prostate.
Assay [6] deals with SK-MEL-2 melanoma.
The subject of assay [7] is KM12 colon.
The test system of assay [8] is NCI-H226 lung.
Assay [9] concerns SF-539 CNS.
Assay [10] has as its system A498 renal.

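Following 48 hours of exposure in 96-well plates, responses at five concentrations were used to interpolate endpoints linearly. GI50 = concentration required for 50% inhibition of growth. The concentration for full growth arrest is given as TGI.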

Regarding `COc1cc(/C=C/c2ccc(OC)c(OC)c2)cc(OC)c1`, the TGI in [1] is 89.8 µM; in [2] it was more than 100 µM; in assay [3] it was more than 100 µM; in [4], 94.1 µM; in [5] it was more than 100 µM; in assay [6] it was more than 100 µM. The TGI in assay [7] was 40.6 µM; in assay [8] it was 74.4 µM; in assay [9], more than 100 µM.
Consider `CC(C)C[C@H](NC(=O)/C=C/Cn1ccc2ccccc2c1=O)B(O)O`, for which the GI50 in [1] was 5.03 µM; in assay [3], 2.12 µM; in assay [10] it was 1.7 µM; in [4], 4.95 µM; in assay [5] it was 8.78 µM; in assay [6], 3.12 µM. Moreover, the figures for the GI50 in assay [7], in [8] and in [9] were 4.54 µM, 1.76 µM and 2.16 µM, respectively. For the same compound, the TGI in assay [1] is more than 100 µM; in assay [3], 7.02 µM; in [10], 7.95 µM; in assay [4], more than 100 µM; in assay [5], more than 100 µM; in [6], 23.5 µM. For the same compound, the TGI in assay [7] amounted to 19 µM; in [8], 3.63 µM; in assay [9] it was 6.45 µM.
Take `COc1ccc(C(=O)COc2ccc(/C=C3\COc4ccc(OC)cc4C3=O)cc2)cc1`: the GI50 in assay [1] was 10.7 µM; in [2], 41.2 µM; in [3], 52.1 µM; in [4], 32.4 µM; in assay [5] it was 31 µM; in [6], 37.5 µM. In addition, the results for the GI50 in assay [7], in assay [8] and in assay [9] were 8.72 µM, 54.7 µM and 25.2 µM, respectively. For the same compound, the TGI in assay [1] was 34.2 µM; in assay [2], more than 100 µM; in assay [3], more than 100 µM; in assay [4], more than 100 µM; in assay [5], more than 100 µM; in [6] it was more than 100 µM. The values for the TGI in assay [7], in [8] and in assay [9] were 85.8 µM, more than 100 µM and 65.6 µM, respectively.
As to `O=c1cc(NC2CCN(CCCc3ccccc3)CC2)c2cc(Cl)ccc2o1`, the GI50 in assay [1] is 15.1 µM; in assay [3], 15.4 µM; in assay [10], 0.0423 µM; in [4] it was 12.4 µM; in assay [5], 15.8 µM; in assay [6] it was 18.4 µM. Besides, the GI50 is 12.5 µM in assay [7], 15.6 µM in assay [8] and 12.3 µM in assay [9]. In addition, the TGI in [1] amounted to 36 µM; in assay [3], 30 µM; in assay [10], 6.92 µM; in [4], 25.6 µM; in assay [5], 29.3 µM; in assay [6], 33.1 µM. For the same compound, the TGI in assay [7] worked out at 25 µM; in assay [8], 39.6 µM; in assay [9] it was 25.3 µM.
Consider `Nc1ccc(-c2nc3ccc(Cc4ccc5nc(-c6ccc(N)cc6)[nH]c5c4)cc3[nH]2)cc1`, for which the GI50 was 13 µM in [1]; 20.6 µM in assay [3]; 0.855 µM in [10]; 45.6 µM in [4]; 11.1 µM in assay [5]; 12.6 µM in assay [6]. Moreover, the GI50 in assay [7] is 1.37 µM; in [8], 8.06 µM; in [9] it was 1.91 µM. The TGI in [1] is 39.5 µM; in assay [3], 45.7 µM; in assay [10], 21.4 µM; in assay [4], more than 100 µM; in assay [5], 24.2 µM; in assay [6], 35.4 µM. The TGI in assay [7] was found to be 3.05 µM; in assay [8] it was 36.9 µM; in assay [9], 3.91 µM.
Turning to `Cc1[nH]c2ccccc2c(=O)c1CC=C(Cl)Cl`, the GI50 in assay [1] is 24.6 µM; in [3], 57 µM; in [10], 14.5 µM; in assay [4] it was 63.9 µM; in assay [5], 88.2 µM; in assay [6] it was 28.4 µM. Further, the GI50 is more than 100 µM in [7], 25.9 µM in [8] and 39.4 µM in assay [9]. Moreover, the TGI in [1] was more than 100 µM; in [3], more than 100 µM; in [10], 86.8 µM; in assay [4] it was more than 100 µM; in assay [5], more than 100 µM; in [6], more than 100 µM. In addition, the TGI in assay [7], in [8] and in assay [9] was more than 100 µM throughout.
As to `COc1cc2[nH]c(C(=O)c3cc(OC)c(OC)c(OC)c3)c(N)c2cc1C#CC1CC1`, the GI50 in assay [1] was 3.75 µM; in assay [3], more than 100 µM; in assay [10], 3.23 µM; in assay [4], 2.54 µM; in [5], 3.33 µM; in assay [6], 5.14 µM. In addition, the GI50 is 2.51 µM in [7], 22.4 µM in assay [8] and 0.815 µM in assay [9]. The TGI in assay [1] was more than 100 µM; in [3], more than 100 µM; in [10], 61.1 µM; in [4] it was more than 100 µM; in assay [5] it was more than 100 µM; in assay [6], more than 100 µM. Also, the figures for the TGI in assay [7], in [8] and in [9] were more than 100 µM, more than 100 µM and 4.77 µM, respectively.
As to `CC(CO)(CO)NCCCCn1ccc2c1C(=O)c1c(c(O)c3ccccc3c1O)C2=O`, the GI50 was 30.3 µM in assay [1]; 17.8 µM in assay [2]; 22.3 µM in assay [10]; 13.6 µM in assay [4]; 16.1 µM in assay [5]; 1.4 µM in [7]. Also, the GI50 in assay [9] was 15.3 µM. Moreover, the TGI in assay [1] was 73.4 µM; in assay [2], 44.5 µM; in assay [10], 51 µM; in assay [4], 30.4 µM; in [5], 30.5 µM; in [7] it was 2.7 µM. The compound also had a TGI in assay [9] of 47.1 µM.

Values taken from PubChem BioAssay (NCI).
